Assay results published in patent US12006321B2, “Substituted pyrazolo[1,5-a]pyrimidines as apelin receptor agonists” (Sanford Burnham Prebys Medical Discovery Institute, priority 2017, dated 2024).
pEC50: −log10 of the molar value.

molecular target: T1, human apelin receptor (APJ, APLNR) (Homo sapiens, UniProt P35414); assay: cell-based cAMP assay (TR-FRET) in Chinese hamster ovary cells expressing the apelin receptor; conditions: EC50 = 50% of control (apelin-13, 1 nM) response; cAMP in CHO cells, 0.5 h incubation; read-out: Potency Category
T1 construct: host or cells: Chinese hamster ovary (CHO) cells, stably integrated receptor
T1 sequence (P35414 1-380): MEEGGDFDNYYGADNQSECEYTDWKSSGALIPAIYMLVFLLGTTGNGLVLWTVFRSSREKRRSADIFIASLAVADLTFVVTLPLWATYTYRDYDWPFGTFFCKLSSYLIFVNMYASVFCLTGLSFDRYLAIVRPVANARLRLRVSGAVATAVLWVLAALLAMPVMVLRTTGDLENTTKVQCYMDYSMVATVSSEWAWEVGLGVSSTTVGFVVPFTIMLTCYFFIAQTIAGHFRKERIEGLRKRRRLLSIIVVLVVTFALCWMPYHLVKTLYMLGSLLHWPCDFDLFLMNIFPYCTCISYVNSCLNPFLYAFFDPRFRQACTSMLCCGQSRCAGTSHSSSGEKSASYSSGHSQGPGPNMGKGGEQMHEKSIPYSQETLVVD
Procedure: This example illustrates the biological activity of various compounds tested against the APJ receptor.
Commercially available cell lines were used to screen chemical libraries to identify compounds that potently and selectively activated the human apelin receptor. The assays disclosed herein were performed using cell lines from DiscoveX, Inc.
Biological activity was determined to the cell-based assay. This assay detects activation of the receptor by reporting on intracellular cyclic adenosine monophosphate (cAMP) level. Chinese hamster ovary cells engineered to express the stably integrated human appellant receptor (APJ, AGTRL-one, APLNR), pleaded into the wells of the microtiter plate. Cells were stimulated with […] to increase intracellular cyclic AMP. Immediately following, compounds were added to the range of final concentrations 0.0-100 μM, in DMSO (not to exceed a final DMSO concentration greater than 1% v/v), and allowed to incubate with the cells for 0.5 h. At the end of the incubation, cells were lysed to stop APJ signaling and cAMP was quantified using a commercially available competitive immunoassay kit that applies homogenous time-resolved florescence energy transfer (TR-FRET). The assay is based on the competition between a europium (Eu) chelate-labeled cAMP donor tracer and cellular cAMP for binding sites on a cAMP-specific monoclonal antibody labeled with an acceptor fluorophore. When antibodies are bound to the cAMP tracer light emissions at 320 nm stimulate the energy transfer from the donor to the acceptor, which in turn emits light at 665 nm. In the presence of competitive unlabeled cAMP (derived from the activity of the receptor or forskolin-stimulated production of cAMP), the labelled cAMP tracer is dissociated from the cAMP antibody, resulting in a loss of FRET signal. The amount of light emitted by the FRET is inversely proportional to the cAMP generated by the cell/receptor system. Potency and efficacy at APJ are reported in reference to the canonical APJ receptor agonist apelin-13 when tested at 1 nM.
Compound competency is reported as the effective concentration required to effect 50% (EC 50) of the control (apelin—13, 1 nM) response in micromole are (μM) units. Compound efficacy (% response) is reported as a percentage of the maximal apein-13 response at 1 nM (control). Potencies were calculated by fitting a four-point logistic curve to concentration response consisting of at least 10 discrete data points spanning effective range of the compounds in the cell-based assay that measures cAMP. In Table 1, the Potency Categories are A, B, C and D. Category A EC50>500 nM; Category B 200<EC50<500 nM; Category C 100<EC50<200 nM; Category D<100 nM.

Row | SMILES | pEC50
1 | CCOC(=O)c1cc(C(C)C)n2nc(C)c(-c3c(C)cccc3OC)c2n1 [Compound 65, ethyl 3-(6-methoxy-2-methylphenyl)-2-methyl-7-(methylethyl)-8-hydropyrazolo[1,5-a]pyrimidine-5-carboxylate] | < 6.30
2 | Cc1cccc(C)c1-c1c(C)nn2c(C3CCCC3)cc(C(=O)O)nc12 [Compound 68, 3-(2,6-dimethylphenyl)-7-cyclopentyl-2-methyl-8-hydropyrazolo[1,5-a]pyrimidine-5-carboxylic acid] | 6.30 to 6.70
3 | CCOC(=O)c1cc(C2CCCC2)n2nc(C)c(-c3c(C)cccc3C)c2n1 [Compound 69, ethyl 3-(2,6-dimethylphenyl)-7-cyclopentyl-2-methyl-8-hydropyrazolo[1,5-a]pyrimidine-5-carboxylate] | < 6.30
4 | CCc1cc(C(=O)O)nc2c(-c3c(C)cccc3C)c(C)nn12 [Compound 72, 3-(2,6-dimethylphenyl)-7-ethyl-2-methyl-8-hydropyrazolo[1,5-a]pyrimidine-5-carboxylic acid] | < 6.30
5 | CCc1nn2c(C(C)C)cc(C(=O)O)nc2c1-c1c(C)cccc1C [Compound 74, 3-(2,6-dimethylphenyl)-2-ethyl-7-(methylethyl)-8-hydropyrazolo[1,5-a]pyrimidine-5-carboxylic acid] | < 6.30
6 | Cc1cccc(C)c1-c1c(C)nn2c(C(C)C)cc(C(=O)NO)nc12 [Compound 75, 3-(2,6-dimethylphenyl)-2-methyl-7-(methylethyl)-8-hydropyrazolo[1,5-a]pyrimidine-5-carbohydroxamic acid] | 6.70 to 7.00
7 | Cc1cccc(C)c1-c1c(C2CCC2)nn2c(C(C)C)cc(C(=O)O)nc12 [Compound 81, 3-(2,6-dimethylphenyl)-2-cyclobutyl-7-(methylethyl)-8-hydropyrazolo[1,5-a]pyrimidine-5-carboxylic acid] | < 6.30
8 | CCOC(=O)c1cc(-c2ccccc2)n2nc(C)c(-c3c(C)cccc3C)c2n1 [Compound 82, ethyl 3-(2,6-dimethylphenyl)-2-methyl-7-phenyl-8-hydropyrazolo[1,5-a]pyrimidine-5-carboxylate] | < 6.30
9 | Cc1cccc(C)c1-c1c(C)nn2c(-c3ccccc3)cc(C(=O)O)nc12 [Compound 83, 3-(2,6-dimethylphenyl)-2-methyl-7-phenyl-8-hydropyrazolo[1,5-a]pyrimidine-5-carboxylic acid] | < 6.30
10 | Cc1cccc(C(=O)O)c1-c1c(C)nn2c(C(C)C)cc(C(=O)O)nc12 [Compound 85, 3-(2-carboxy-6-methylphenyl)-2-methyl-7-(methylethyl)-8-hydropyrazolo[1,5-a]pyrimidine-5-carboxylic acid] | < 6.30
11 | CCOC(=O)c1cc(C(C)C)n2nc(CO)c(-c3c(C)cccc3C)c2n1 [Compound 86, ethyl 3-(2,6-dimethylphenyl)-2-(hydroxymethyl)-7-(methylethyl)-8-hydropyrazolo[1,5-a]pyrimidine-5-carboxylate] | < 6.30
12 | Cc1cccc(C)c1-c1c(CO)nn2c(C(C)C)cc(C(=O)O)nc12 [Compound 87, 3-(2,6-dimethylphenyl)-2-(hydroxymethyl)-7-(methylethyl)-8-hydropyrazolo[1,5-a]pyrimidine-5-carboxylic acid] | < 6.30
13 | COCc1nn2c(C(C)C)cc(C(=O)OC)nc2c1-c1c(C)cccc1C [Compound 88, methyl 3-(2,6-dimethylphenyl)-2-(methoxymethyl)-7-(methylethyl)-8-hydropyrazolo[1,5-a]pyrimidine-5-carboxylate] | < 6.30
14 | CCOC(=O)c1cc(C(C)C)n2nc(C)c(-c3c(F)cccc3OC)c2n1 [Compound 91, ethyl 3-(6-fluoro-2-methoxyphenyl)-2-methyl-7-(methylethyl)-8-hydropyrazolo[1,5-a]pyrimidine-5-carboxylate] | < 6.30

Continued, values first:

Row | pEC50 | SMILES
15 | < 6.30 | CCOC(=O)c1cc(C(C)C)n2nc(C)c(-c3c(C)cc(Cl)cc3C)c2n1 [Compound 66, ethyl 3-(4-chloro-2,6-dimethylphenyl)-2-methyl-7-(methylethyl)-8-hydropyrazolo[1,5-a]pyrimidine-5-carboxylate]
16 | < 6.30 | CCOC(=O)c1cc(C(C)C)n2nc(C)c(-c3c(C)cccc3C(=O)OCC)c2n1 [Compound 67, ethyl 3-[2-(ethoxycarbonyl)-6-methylphenyl]-2-methyl-7-(methylethyl)-8-hydropyrazolo[1,5-a]pyrimidine-5-carboxylate]
17 | < 6.30 | Cc1cc(Cl)cc(C)c1-c1c(C)nn2c(C(C)C)cc(C(=O)O)nc12 [Compound 70, 3-(4-chloro-2,6-dimethylphenyl)-2-methyl-7-(methylethyl)-8-hydropyrazolo[1,5-a]pyrimidine-5-carboxylic acid]
18 | 6.30 to 6.70 | Cc1cccc(C)c1-c1c(C)nn2c(C3CC3)cc(C(=O)O)nc12 [Compound 71, 3-(2,6-dimethylphenyl)-7-cyclopropyl-2-methyl-8-hydropyrazolo[1,5-a]pyrimidine-5-carboxylic acid]
19 | < 6.30 | CCOC(=O)c1cc(C(C)C)n2nc(C(C)C)c(-c3c(C)cccc3C)c2n1 [Compound 73, ethyl 2,7-bis(methylethyl)-3-(2,6-dimethylphenyl)-8-hydropyrazolo[1,5-a]pyrimidine-5-carboxylate]
20 | < 6.30 | COc1cccc(C)c1-c1c(C)nn2c(C(C)C)cc(C(=O)O)nc12 [Compound 76, 3-(2-methoxy-6-methylphenyl)-2-methyl-7-(methylethyl)-8-hydropyrazolo[1,5-a]pyrimidine-5-carboxylic acid]
21 | 6.70 to 7.00 | CCOC(=O)c1cccc(C)c1-c1c(C)nn2c(C(C)C)cc(C(=O)O)nc12 [Compound 77, 3-[6-(ethoxycarbonyl)-2-methylphenyl]-2-methyl-7-(methylethyl)-8-hydropyrazolo[1,5-a]pyrimidine-5-carboxylic acid]
22 | < 6.30 | CCOC(=O)c1cc(C(C)C)n2nc(-c3ccccc3)c(-c3c(C)cccc3C)c2n1 [Compound 78, ethyl 3-(2,6-dimethylphenyl)-7-(methylethyl)-2-phenyl-8-hydropyrazolo[1,5-a]pyrimidine-5-carboxylate]
23 | < 6.30 | Cc1cccc(C)c1-c1c(-c2ccccc2)nn2c(C(C)C)cc(C(=O)O)nc12 [Compound 79, 3-(2,6-dimethylphenyl)-7-(methylethyl)-2-phenyl-8-hydropyrazolo[1,5-a]pyrimidine-5-carboxylic acid]
24 | < 6.30 | Cc1cccc(C)c1-c1c(C(C)C)nn2c(C(C)C)cc(C(=O)O)nc12 [Compound 80, 2,7-bis(methylethyl)-3-(2,6-dimethylphenyl)-8-hydropyrazolo[1,5-a]pyrimidine-5-carboxylic acid]
25 | < 6.30 | Cc1cccc(C)c1-c1c(C2CC2)nn2c(C(C)C)cc(C(=O)O)nc12 [Compound 84, 3-(2,6-dimethylphenyl)-2-cyclopropyl-7-(methylethyl)-8-hydropyrazolo[1,5-a]pyrimidine-5-carboxylic acid]
26 | < 6.30 | COCc1nn2c(C(C)C)cc(C(=O)O)nc2c1-c1c(C)cccc1C [Compound 89, 3-(2,6-dimethylphenyl)-2-(methoxymethyl)-7-(methylethyl)-8-hydropyrazolo[1,5-a]pyrimidine-5-carboxylic acid]
27 | < 6.30 | Cc1cccc(C)c1-c1c(CN(C)C)nn2c(C(C)C)cc(C(=O)O)nc12 [Compound 90, 2-[(dimethylamino)methyl]-3-(2,6-dimethylphenyl)-7-(methylethyl)-8-hydropyrazolo[1,5-a]pyrimidine-5-carboxylic acid]
28 | < 6.30 | COc1cccc(F)c1-c1c(C)nn2c(C(C)C)cc(C(=O)O)nc12 [Compound 92, 3-(6-fluoro-2-methoxyphenyl)-2-methyl-7-(methylethyl)-8-hydropyrazolo[1,5-a]pyrimidine-5-carboxylic acid]
